From patent US20220323406A1, “METHODS AND COMPOSITIONS FOR DIFFERENTIATING STEM CELLS” (Massachusetts Institute of Technology, priority 2019, published 2022)

Assays:
[1] = test system: ENR+CD organoids (ISC to Paneth cell differentiation); assay: Primary screen: basal (non-stimulated) lysozyme secretion LYZ.NS, 2.5-D 384-well ENR+CD organoid differentiation; type: cell-based, mouse; conditions: primary screen
Description: (§1) High-throughput screening.

[2] = test system: ENR+CD organoids (ISC to Paneth cell differentiation); assay: Primary screen: CCh-stimulated lysozyme secretion LYZ.S, 2.5-D 384-well ENR+CD organoid differentiation; type: cell-based, mouse; conditions: primary screen
Description: as §1

[3] = test system: ENR+CD organoids; assay: Primary screen: ATP (CellTiter-Glo 3D, CTG) cell number/viability, 2.5-D 384-well ENR+CD organoids; conditions: for Dose.FC.CTG / Z.CTG (standard z score): primary screen;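 for all read-outs here: compounds given at plating and again on day 3 over a 6-day differentiation from ENR+CV stem-cell-enriched precursors, ATP measured on day 6, plate median as control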

Structure (SMILES) | Dose.FC.LYZ.NS ([1]; dose 0.08 uM) [log2 fold change] | Z.LYZ.NS (standard z score) ([1]; dose 0.08 uM) | Dose.FC.LYZ.NS ([1]; dose 0.40 uM) [log2 fold change] | Z.LYZ.NS (standard z score) ([1]; dose 0.40 uM) | Dose.FC.LYZ.NS ([1]; dose 2.00 uM) [log2 fold change] | Z.LYZ.NS (standard z score) ([1]; dose 2.00 uM) | Dose.FC.LYZ.NS ([1]; dose 10.00 uM) [log2 fold change] | Z.LYZ.NS (standard z score) ([1]; dose 10.00 uM) | Dose.FC.LYZ.S ([2]; dose 0.08 uM) [log2 fold change] | Dose.FC.LYZ.S ([2]; dose 0.40 uM) [log2 fold change] | Dose.FC.LYZ.S ([2]; dose 2.00 uM) [log2 fold change] | Dose.FC.LYZ.S ([2]; dose 10.00 uM) [log2 fold change] | Dose.FC.CTG ([3]; dose 0.08 uM) [log2 fold change] | Z.CTG (standard z score) ([3]; dose 0.08 uM) | Dose.FC.CTG ([3]; dose 0.40 uM) [log2 fold change] | Z.CTG (standard z score) ([3]; dose 0.40 uM) | Dose.FC.CTG ([3]; dose 2.00 uM) [log2 fold change] | Z.CTG (standard z score) ([3]; dose 2.00 uM) | Dose.FC.CTG ([3]; dose 10.00 uM) [log2 fold change] | Z.CTG (standard z score) ([3]; dose 10.00 uM) | also measured
CC(C)C[C@@H](C(=O)N[C@H](C(=O)OC1CCCC1)c1ccccc1)[C@H](O)C(=O)NO [Tosedostat (CHR2797)] | −0.002 | −0.022 | −0.106 | −0.925 | −0.050 | −0.432 | −0.172 | −1.499 | −0.027 | −0.134 | −0.128 | −0.276 | −0.097 | −0.232 | 0.051 | 0.123 | −0.201 | −0.480 | −0.468 | −1.117 | SSMD.CTG ([3]; Table 5A primary screen, strictly standardized mean difference, four lines per treatment = four doses, dose not given): −0.311
Cn1c(=O)cc(N2CCC[C@@H](N)C2)n(Cc2cc(F)ccc2C#N)c1=O [Trelagliptin] | 0.007 | 0.059 | −0.019 | −0.166 | −0.033 | −0.292 | −0.050 | −0.433 | 0.020 | 0.058 | −0.022 | −0.109 | 0.202 | – | −0.076 | – | 0.050 | – | 0.135 | – | –
Nc1nc(N)c2nc(-c3ccccc3)c(N)nc2n1 [Triamterene] | 0.103 | 0.894 | 0.030 | 0.266 | −0.056 | −0.490 | −0.187 | −1.630 | 0.048 | 0.051 | −0.065 | −0.290 | −0.029 | – | −0.165 | – | −0.101 | – | −0.462 | – | –
CC(/C=C/C(=O)NO)=C\[C@@H](C)C(=O)c1ccc(N(C)C)cc1 [Trichostatin A (TSA)] | −0.064 | −0.554 | −0.195 | −1.697 | −0.153 | −1.334 | −0.149 | −1.298 | −0.124 | −0.254 | −0.210 | −0.202 | 0.191 | 0.457 | −0.801 | −1.913 | −0.904 | −2.159 | −0.826 | −1.974 | –
